Assay results published in patent US20230025316A1, “OLAPARIB PHARMACEUTICAL COMPOSITION, FORMULATION THEREOF, PREPARATION METHOD THEREOF AND USE THEREOF” (Sinotherapeutics Inc., priority 2020, published 2023).

What was measured:
[1] = Apparent solubility in pH 6.8 phosphate buffer (shaker, HPLC); assay type: physicochemical
Experimental: 3. Apparent solubility: excess amount of Olaparib pharmaceutical composition was weighed into a container, about ⅔ of the volume of the container with pH 6.8 phosphate buffer was added, and the container was placed in a shaker at 37° C. for 2 h. After filtering the contents of the container with a 0.45 μm filter membrane, the filtrate was collected, diluted with an appropriate amount of acetonitrile, mixed by vortex, and the concentration of Olaparib was determined by HPLC analysis.

[2] = Dissolution, USP Method 1 (Basket Method), pH 6.8 phosphate buffer; assay type: physicochemical; details: 900 mL, 100 rpm, 37.5° C., 150 mg Olaparib/cup
Experimental: 5. Dissolution sample analysis: the same as the HPLC analysis method described in the above-mentioned apparent solubility assay.
The main absorption site of drugs in the human body is the small intestine, and the pH value in the small intestine is about 6.8. According to the method described above, the dissolution of each Olaparib-cyclodextrin pharmaceutical composition in pH 6.8 phosphate buffer was determined, and the results were shown in Table 1-4.

solubility at 2 h ([1]; aqueous buffer, thermodynamic from solid, pH 6.8 phosphate buffer, 37° C., 2 h): < 100 µg/mL | Solubility ratio (Composition/API) ([1]; pH 6.8 buffer, apparent solubility relative to API): 1 | Cumulative dissolution in pH 6.8 phosphate buffer ([2]; 15 min): 12.2% | Cumulative dissolution in pH 6.8 phosphate buffer ([2]; 30 min): 21.4% | Cumulative dissolution in pH 6.8 phosphate buffer ([2]; 45 min): 30.2% | Cumulative dissolution in pH 6.8 phosphate buffer ([2]; 60 min): 37.5% | Cumulative dissolution in pH 6.8 phosphate buffer ([2]; 90 min): 39.8%
Structure (SMILES): O=C(c1cc(Cc2n[nH]c(=O)c3ccccc23)ccc1F)N1CCN(C(=O)C2CC2)CC1 [API, 4-[(3-{[4(cyclopropylcarbonyl)piperazin-1-yl]carbonyl}-4-fluorophenyl)methyl]phthalazin-1(2H)-one]
